Data reported in patent publication US5200343A, “Method for microbial dehalogenation of haloaliphatic compounds using a sulfate reducing bacteria, desulfomonile tiedjei” (Board of Trustees operating Michigan State University, priority 1991, dated 1993).
Read-outs that look alike come from different tables or passages of the source.

Legend:
[1] = tested on: 3-Chlorobenzoate Dechlorination Activity; assay: Induction of 3-chlorobenzoate dechlorination activity by growth with 3-chlorobenzoate, analogues, or chloro- and iodobenzoates (Tables 4, 5); format: cell-based, Desulfomonile tiedjei
Procedure: Table 4. Cultures were grown in the presence of 3-chlorobenzoate or a 3-chlorobenzoate analogue substituted at the 1- or 3- position with the indicated functional groups. After several generations the culture were concentrated, washed and resuspended in anaerobic buffered salts containing 1 mM 3-chlorobenzoate and 10 mM pyruvate (as electron donor). […] After two hours samples were taken for benzoate analysis by HPLC. Values presented are the average of duplicate or triplicate cultures ± sample standard deviation.
Table 5. Chloro- and iodobenzoates were tested as inducers of 3-chlorobenzoate dehalogenation activity as described in the legend to Table 4. All compounds were initially at 500 μM; the 3-halo compounds were amended during growth as they were dehalogenated. Values presented are the average of duplicate or triplicate cultures± sample standard deviation.

[2] = tested on: Desulfomonile tiedjei cells; assay: Effect of different medium reductants and sterilant on PCE dechlorination by induced cells (Table 2); format: cell-based; details: formaldehyde, final concentration 0.2%
Procedure: (§1) The concentration of nicotinamide and 1,4-naphthoquinone were 500 μgl^-1 and 200 μgl^-1, respectively. Thiamine, hemin and lipoic acid were used at 50 μg/liter. To induce 3-chlorobenzoate dechlorination activity, 3-fluorobenzoate was added to 0.1 mM. The complete medium was inoculated with a 1% transfer from homologous medium (without fluorobenzoate). Cultures were grown at 37° C. in the dark for about 14 days for fresh cells or 28 days for starved stationary phase cells.
(§2) Cultures were harvested by centrifugation and resuspended in 20 to 40% of the initial volume in a cold anaerobic assay buffer normally consisting of 50 mM NaCl, 10 mM sodium pyruvate, 10 mM HEPES (N-2[hydroxyethylP]piperazine-N'-[2-ethanesulfonic acid], hemisodium salt Sigma);, 0.00001% resazurin and reduced with 1 mM cysteine-HCl and 1 mM titanium (III) citrate. Resuspended cells were used to completely fill N2 sparged 10 ml serum bottles after which chlorinated ethylenes were added from a 0.5 or 1 mg/ml stock in methanol for PCE and TCE respectively. The vials were immediately sealed with Teflon lined rubber septa and aluminum crimp seals, leaving no headspace. The assays were commenced by transferring the serum bottles to a 37° C. water bath. The assays were terminated at the indicated times by transferring the serum bottles to an ice water bath, where they were stored until analyzed.
(§3) Chlorinated ethylenes were monitored with a Tekmar purge and trap unit (model 4000) connected to a Hewlett-Packard GC (Sunnyville, Calif.) equipped with an HP-5 cappillary column (30 m×0.53 mm×2.6 μm film thickness) and flame ionization detector. Samples (5 ml) were purged onto Tenax TA (Supelco, Bellefonte, Pa.) adsorbent with helium (30 ml/min for 16 min.), desorbed (180° C. for 4 min.), and separated using helium as a carrier at 6 ml/min. The temperature program was 30° C. for 8 min, increasing to 200° C. at 4° C./min and followed by an isothermal period of 5 min. The injection and detector temperatures were 220° C. and 300° C., respectively. PCE and its dechlorinated products were identified by comparison with authentic standards.
Data are the average of duplicate vials and […]

[3] = tested on: Dechlorination of 3-Chlorobenzoate; assay: Dechlorination of 3-chlorobenzoate in the presence of various analogues by induced cells (Table 6); format: cell-based; details: Desulfomonile tiedjei, read-out: dechlorination of 3-chlorobenzoate in the presence of analogue, % of Control
Procedure: […]. 3-fluorobenzoate induced cultures were washed and resuspended essentially as described in the legend to […] with 100 μM 3-chlorobenzoate and the indicated analogues at 500 μM. Dechlorination rates were normalized to the rate in assays with no analogue to obtain the values presented.

[4] = tested on: Desulfomonile tiedjei cells; assay: PCE and TCE dechlorination by resuspended cells induced with 3-fluorobenzoate versus non-induced cells (Table 1, FIG. 1); format: cell-based; details: for Mole % recovered, TCE / Mole % recovered, cis-DCE / Total Cl Removed: 2 μg/ml substrate, 37° C., 2 hr; for Mole % recovered, TCE / Mole % recovered, cis-DCE: average of duplicate vials; for Total Cl Removed: calculated from input concentration and Mole % recovered
Procedure: as §1, with “Cultures were grown using strict anaerobic technique in a synthetic minimal medium amended with vitamins (DeWeerd, et al, Arch. of Microbiol. 154, 23-30 (1990)), pyruvate at 20 mM, and reduced with 1 mM cysteine and 0.1 mM Na2 S2 O4. The concentration” for “The concentration”
as §2, with “analyzed. Protein concentrations were determined by a modification of the Lowry method (Hanson, R. S. and J. A. Phillips, In P. Gerhardt (ed.) Manual of methods for general microbiology. American Society for Microbiology, Washington, D. C. p. 328-364 (1981)).” for “analyzed.”
as §3
To further examine the transformation of both PCE and TCE and to determine if dechlorination of TCE also requires induction, a similar experiment was conducted to measure the initial transformation rates of PCE and TCE (Table 1.). […] The extent of transformation of PCE to TCE ([…] in 2H) was considerably faster than the rate of transformation of TCE to DCE ([…] in 2h), as expected from the redox potentials of these reactions (Vogel, T. M., et al., Environ. Sci. Technol. 21:722-736 (1987)) and results from mixed culture systems (Bouwer, E. J., and P. L. McCarty, Appl. Environ. Microbiol. 45:1286-1294 (1983)). The rate of transformation of PCE and TCE were much greater for the induced cultures than for the non-induced cultures.
^a suspensions were amended with PCE or TCE to a final concentration
of 2 μg/ml and incubated at 37° C. for 2 hr. Suspensions of
induced and uninduced cells contained 149 and 153 μg protein per ml
^b Data are presented as the average of duplicate vials with the
sample standard deviation in parenthesis.
^c Calculated from the input concentration of chlorinated ethylenes
and the Mole % of recovered material.

dechlorination of 3CB = details: cited from earlier work
[5] = Table 5, inducers initially 500 μM, 3-halo compounds amended during growth
[6] = Table 4, inducers at 500 μM except 3-formylbenzoate 100 μM and 3-chlorobenzoate (amended at intervals), assay 1 mM 3-chlorobenzoate, two hours
[7] = 100 μM 3-chlorobenzoate, analogue 500 μM, normalized to rate with no analogue
[8] = growing cells and resuspended cells

Structure (SMILES): O=C(O)c1cccc(I)c1 [3-iodo-, m-iodobenzoate]
- Induction Activity (3-chlorobenzoate dechlorination activity) [1, 5]: 582 ± 59 nMol/hr/mg protein

Structure (SMILES): C=O [formaldehyde]
- effect on PCE dechlorination [2]: almost totally blocked dechlorination

Structure (SMILES): O=C(O)c1cccc(O)c1 [--COOH --OH]
- Induction Activity (3-chlorobenzoate dechlorination activity) [1, 6]: 3 ± 4 nMol/hr/mg protein
- activity at 500 µM [3, 7]: 91%

Structure (SMILES): O=C(O)c1ccc(I)cc1 [4-iodobenzoate]
- Induction Activity (3-chlorobenzoate dechlorination activity) [1, 5]: 7 ± 10 nMol/hr/mg protein

Structure (SMILES): O=C(O)c1ccccc1Cl [2-chloro-]
- Induction Activity (3-chlorobenzoate dechlorination activity) [1, 5]: 0 ± 0 nMol/hr/mg protein

Structure (SMILES): N#Cc1cccc(C(=O)O)c1 [--COOH --CN]
- Induction Activity (3-chlorobenzoate dechlorination activity) [1, 6]: 7 ± 1 nMol/hr/mg protein
- activity at 500 µM [3]: 76%

Structure (SMILES): ClC=C(Cl)Cl [TCE, trichloroethylene]
- product formation from PCE or TCE ([4]; Only cultures pre-induced with 3-fluorobenzoate): measurable product formation
- Mole % recovered, TCE ([4]; induced (+)): 89.2 Mole %
- Mole % recovered, cis-DCE ([4]; induced (+)): 10.8 Mole %
- Total Cl Removed ([4]; induced (+)): 11.0 μmol/g prot. in 2 h
- Mole % recovered, TCE ([4]; non-induced (-)): 100.0 Mole %
- Mole % recovered, cis-DCE ([4]; non-induced (-)): 0.0 Mole %
- Total Cl Removed ([4]; non-induced (-)): 0.0 μmol/g prot. in 2 h
- rate of transformation of TCE to DCE ([4]; pre-induced with 3-fluorobenzoate): 11 mol g protein ^-1 in 2h

Structure (SMILES): O=C(O)c1ccccc1 [--COOH --H, benzoate]
- activity at 500 µM [3]: 106%

Structure (SMILES): O=C(O)c1ccccc1I [2-iodobenzoate]
- Induction Activity (3-chlorobenzoate dechlorination activity) [1, 5]: 13 ± 9 nMol/hr/mg protein

Structure (SMILES): Cc1cccc(C(=O)O)c1 [3-methyl-benzoate]
- Induction Activity (3-chlorobenzoate dechlorination activity) [1, 6]: 409 ± 6 nMol/hr/mg protein
- activity at 500 µM [3, 7]: 119%

Structure (SMILES): O=Cc1cccc(C(=O)O)c1 [3-formylbenzoate]
- Induction Activity (3-chlorobenzoate dechlorination activity) [1, 6]: 8 ± 1 nMol/hr/mg protein

Structure (SMILES): O=S(=O)(O)O [Sulfate]
- effect on dechlorination of 3CB (dechlorination of 3CB; cells growing on a different medium or resuspended cells): not by cells growing on a different medium or by resuspended cells
- effect on dechlorination of 3CB (dechlorination of 3CB; cells growing on one medium): inhibited dechlorination of 3CB

Structure (SMILES): Nc1cccc(C(=O)O)c1 [--COOH --NH2]
- Induction Activity (3-chlorobenzoate dechlorination activity) [1, 6]: 4 ± 1 nMol/hr/mg protein
- activity at 500 µM [3, 7]: 78%

Structure (SMILES): O=C(O)c1cccc(C(F)(F)F)c1 [--COOH --CF3, m-trifluoromethyl benzoate]
- Induction Activity (3-chlorobenzoate dechlorination activity) [1, 6]: 383 ± 6 nMol/hr/mg protein
- activity at 500 µM [3, 7]: 94%

Structure (SMILES): OCc1cccc(Cl)c1 [--CH2 OH --Cl, 3-chlorobenzyl alcohol]
- Induction Activity (3-chlorobenzoate dechlorination activity) [1, 6]: 86 ± 5 nMol/hr/mg protein
- activity at 500 µM [3, 7]: 108%

Structure (SMILES): O=C(O)c1cccc(F)c1 [3-fluorobenzoate]
- Induction Activity (3-chlorobenzoate dechlorination activity) [1, 6]: 570 ± 37 nMol/hr/mg protein
- activity at 500 µM [3, 7]: 114%

Structure (SMILES): O=S(O)O [sulfite]
- effect on dechlorination of 3CB (dechlorination of 3CB; [8]): inhibit dechlorination of 3CB

Structure (SMILES): O=S(O)(O)=S [Thiosulfate]
- effect on dechlorination of 3CB (dechlorination of 3CB; [8]): inhibit dechlorination of 3CB
